This is an account of results in patent publication US12528802B2, “Heterocyclic compound” (Takeda Pharmaceutical Company Limited, priority 2019, dated 2026).

The target in the assay is T1, glucosylceramide synthase (Homo sapiens, UniProt Q16739).
T1 construct: made in house; host or cells: Expi293F cells (transient expression, pcDNA3.3-TOPO vector); microsome fraction used as enzyme source
T1 sequence (Q16739 1-394): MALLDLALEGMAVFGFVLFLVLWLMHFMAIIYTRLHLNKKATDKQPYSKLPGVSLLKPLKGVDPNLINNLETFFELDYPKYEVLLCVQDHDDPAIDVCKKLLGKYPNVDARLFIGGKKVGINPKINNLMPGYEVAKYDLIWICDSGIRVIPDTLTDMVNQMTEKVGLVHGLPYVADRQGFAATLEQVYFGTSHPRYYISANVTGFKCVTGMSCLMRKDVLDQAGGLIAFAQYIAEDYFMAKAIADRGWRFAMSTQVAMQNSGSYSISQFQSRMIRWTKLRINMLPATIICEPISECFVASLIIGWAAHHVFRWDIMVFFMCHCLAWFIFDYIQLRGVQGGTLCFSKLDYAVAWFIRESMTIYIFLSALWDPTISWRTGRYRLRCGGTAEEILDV
Nature of the assay: Glucosylceramide synthase (GCS) enzyme assay, microsome fraction, C8 glucosylceramide quantified by Rapidfire MS/MS. Format: biochemical. Conditions: test compound 10 μM, 1.7 μM UDP-glucose, 3 μM C8 ceramide, room temperature 60 min; for inhibition at 10 µM: read-out: GCS enzyme inhibitory rate at 10 μM (%) (% of control). As for the experimental part: Glucosylceramide Synthase (GCS) Assay
In enzyme assay, a microsome fraction obtained by transient expression by Expi293F™ cells (catalog number: A14527, Thermo Fisher Scientific) was used as a glucosylceramide synthase source. Liposomal C8 ceramide and UDP-glucose were used as substrates. […] After the enzymatic reaction, the analysis was performed with Rapidfire MS/MS (API-4000™, SCIEX), and C8 glucosylceramide was quantified to evaluate the inhibitory activity of the test compound against glucosylceramide synthase activity.
PcDNA3.3TOPO vector (catalog number: K830001, Thermo Fisher Scientific) into which the human GCS gene was inserted was introduced into Expi293F™ Cells (catalog number: A14527, Thermo Fisher Scientific) by using ExpiFectamine™ 293 Transfection Kit (catalog number: A14525, Thermo Fisher Scientific). The cultured cells were dissolved in D-PBS (catalog number: 048-29805, Fuji Film Wako Pure Chemical Industries, Ltd.) containing 1 mM PMSF, and the solution was allowed to stand on ice for 30 minutes, and then subjected to cell disruption (homogenized). The disruption solution was centrifuged at 10,000×g for 20 minutes at 4° C., and the obtained supernatant was centrifuged at 142,400×g for 60 minutes at 4° C. The obtained precipitate was resuspended in a D-PBS solution containing 1 mM PMSF, and homogenized again to prepare as a microsome fraction. Protein quantification was performed by the CBB method.
A 1 mM compound solution prepared by dissolving the test compound in DMSO was added to a 384-well plate by 100 nL so that the final concentration of the test compound was 10 μM. Next, a substrate solution consisting of 3.4 μM UDP-glucose and 6 μM C8 ceramide was added by 5 μL, followed by an enzyme solution consisting of a 25 μg/mL microsome fraction by 5 μL. C8 ceramide was prepared from liposomes composed of 15 mol % C8 ceramide and 85 mol % dioleoyl phosphatidylcholine (1,2-dioleoyl-sn-glycero-3-phosphocholine: DOPC). The enzymatic reaction was carried out in a solution consisting of 20 mM tris-hydrochloric acid buffer (pH 7.5), 0.01% Tween 20, 0.01% bovine serum albumin and 1 mM dithiothreitol at room temperature for 60 min. Then, a solution consisting of 75% isopropanol and 1% formic acid containing 0.25 μM N-Octadecanoyl-D35-psichosine (catalog number: 1914, Matreya) as an internal standard substance was added by 60 μL to stop the enzymatic reaction. 5 μL of the centrifugal supernatant of the obtained reaction product was analyzed by Rapidfire MS/MS (Agilent Technologies) using API-4000™ (SCIEX), and the C8 glucosylceramide was quantified to evaluate the inhibitory activity of the test compound against the glucosylceramide synthase activity. The inhibitory activity of the test compound was evaluated when the C8 glucosylceramide level in the enzyme-free solution was considered as 100% inhibitory and the enzyme activity of the DMSO group in the absence of the compound was considered as 0% inhibitory.

With `Cn1nc(N2Cc3c(ccnc3-c3ccc(F)cc3OCC(F)(F)F)C2=O)cc1C1CC1` [Example 239, 2-(5-cyclopropyl-1-methyl-1H-pyrazol-3-yl)-4-[4-fluoro-2-(2,2,2-trifluoroethoxy)phenyl]-2,3-dihydro-1H-pyrrolo[3,4-c]pyridin-1-one], the inhibition at 10 µM stood at 51%.
As to `O=C(c1ccc(N2Cc3c(ccnc3-c3ccc(F)cc3OCC(F)(F)F)C2=O)cc1)N1CCC(F)(F)CC1` [Example 182, 2-[4-(4,4-difluoropiperidine-1-carbonyl)phenyl]-4-[4-fluoro-2-(2,2,2-trifluoroethoxy)phenyl]-2,3-dihydro-1H-pyrrolo[3,4-c]pyridin-1-one], the inhibition at 10 µM stood at 99%.
For the compound `CC(C)(O)c1ccc(N2Cc3c(cc(C4CCOC4)nc3-c3ccccc3OCC(F)F)C2=O)cc1` (racemic) [Example 390, rac-4-[2-(2,2-difluoroethoxy)phenyl]-2-[4-(2-hydroxypropan-2-yl)phenyl]-6-(oxolan-3-yl)-2,3-dihydro-1H-pyrrolo[3,4-c]pyridin-1-one], the inhibition at 10 µM amounted to 77%.
Take `O=C1c2ccnc(-c3ccccc3OCC(F)(F)F)c2CN1c1ccc(C(O)C(F)(F)F)nc1` (racemic) [Example 249, rac-4-[2-(2,2,2-trifluoroethoxy)phenyl]-2-[6-(2,2,2-trifluoro-1-hydroxyethyl)pyridin-3-yl]-2,3-dihydro-1H-pyrrolo[3,4-c]pyridin-1-one]: the inhibition at 10 µM was found to be 98%.
Regarding `O=C1c2ccnc(-c3ccc(F)cc3OCC(F)(F)F)c2CN1c1ccc(C(O)(C(F)F)C(F)F)cc1` [Example 245, 4-[4-fluoro-2-(2,2,2-trifluoroethoxy)phenyl]-2-[4-(1,1,3,3-tetrafluoro-2-hydroxypropan-2-yl)phenyl]-2,3-dihydro-1H-pyrrolo[3,4-c]pyridin-1-one], the inhibition at 10 µM is 100%.
`COc1ccccc1-c1nccc2c1CN(c1ccc(OC(F)F)cn1)C2=O` [Example 39, 2-[5-(difluoromethoxy)pyridin-2-yl]-4-(2-methoxyphenyl)-2,3-dihydro-1H-pyrrolo[3,4-c]pyridin-1-one]: the inhibition at 10 µM stood at 93%.
Same read-out and setting: then `CC(O)c1cc2c(c(-c3ccccc3OCC(F)F)n1)CN(c1ccc(OC(F)F)cc1)C2=O` (racemic) [Example 358, rac-4-[2-(2,2-difluoroethoxy)phenyl]-2-[4-(difluoromethoxy)phenyl]-6-(1-hydroxyethyl)-2,3-dihydro-1H-pyrrolo[3,4-c]pyridin-1-one], with 100%.
Consider `O=C1c2ccnc(-c3ccc(F)cc3OC(F)F)c2CN1c1ccc(OC(F)F)cn1` [Example 53, 4-[2-(difluoromethoxy)-4-fluorophenyl]-2-[5-(difluoromethoxy)pyridin-2-yl]-2,3-dihydro-1H-pyrrolo[3,4-c]pyridin-1-one], for which the inhibition at 10 µM stood at 67%.
For `CC(C)(O)COc1ccc(N2Cc3c(cn(C(F)F)c(=O)c3-c3ccccc3OCC(F)(F)F)C2=O)cc1` [Example 369, 5-(difluoromethyl)-2-[4-(2-hydroxy-2-methylpropoxy)phenyl]-7-[2-(2,2,2-trifluoroethoxy)phenyl]-1H-pyrrolo[3,4-c]pyridine-3,6(2H,5H)-dione], the inhibition at 10 µM was found to be 100%.
Take `O=C1CC2=C(CN(c3ccc(F)cc3)C2=O)N(c2ccc(F)cc2OCC(F)(F)F)N1` [Example 115, 6-(4-fluorophenyl)-1-[4-fluoro-2-(2,2,2-trifluoroethoxy)phenyl]-6,7-dihydro-1H-pyrrolo[3,4-c]pyridazine-3,5(2H,4H)-dione]: the inhibition at 10 µM turned out to be 65%.
With `CCS(=O)(=O)c1ccc(N2Cc3c(ccnc3-c3ccccc3OCC(F)(F)F)C2=O)cc1` [Example 160, 2-[4-(ethanesulfonyl)phenyl]-4-[2-(2,2,2-trifluoroethoxy)phenyl]-2,3-dihydro-1H-pyrrolo[3,4-c]pyridin-1-one], the inhibition at 10 µM is 99%.
Turning to `O=C1c2ccnc(-c3ccc(F)cc3OCC(F)(F)F)c2CN1c1ccc(C2(O)CCOC2)cn1` (single isomer, unassigned) [Example 301, (R or S)-4-[4-fluoro-2-(2,2,2-trifluoroethoxy)phenyl]-2-[5-(3-hydroxyoxolan-3-yl)pyridin-2-yl]-2,3-dihydro-1H-pyrrolo [3,4-c]pyridin-1-one], the “GCS enzyme inhibitory rate at 10 μM (%) (% of control)” value stood at 97%.
Regarding `O=C1c2ccnc(-c3ccccc3OCC(F)(F)F)c2CN1c1ccc(C(O)C2CC2)cc1` (racemic) [Example 329, rac-2-{4-[cyclopropyl(hydroxy)methyl]phenyl}-4-[2-(2,2,2-trifluoroethoxy)phenyl]-2,3-dihydro-1H-pyrrolo[3,4-c]pyridin-1-one], the inhibition at 10 µM was 100%.
For `O=C(c1ccc(N2Cc3c(ccnc3-c3ccc(F)cc3OCC(F)(F)F)C2=O)cc1)N1CCCC1` [Example 180, 4-[4-fluoro-2-(2,2,2-trifluoroethoxy)phenyl]-2-[4-(pyrrolidine-1-carbonyl)phenyl]-2,3-dihydro-1H-pyrrolo[3,4-c]pyridin-1-one], the inhibition at 10 µM came to 92%.
In the case of `N#Cc1ccc(N2Cc3cnn(-c4ccccc4OCC(F)(F)F)c3C2)nc1` [Example 216, 6-{1-[2-(2,2,2-trifluoroethoxy)phenyl]-4,6-dihydropyrrolo[3,4-c]pyrazol-5(1H)-yl}pyridine-3-carbonitrile], the inhibition at 10 µM came to 98%.
In the case of `O=C1c2ccnc(-c3ccc(F)cc3OCC(F)(F)F)c2CN1c1ccc(OC(F)F)cn1` [Example 55, 2-[5-(difluoromethoxy)pyridin-2-yl]-4-[4-fluoro-2-(2,2,2-trifluoroethoxy)phenyl]-2,3-dihydro-1H-pyrrolo[3,4-c]pyridin-1-one], the inhibition at 10 µM worked out at 98%.
On to `N#Cc1ccc(N2Cc3c(ccnc3-c3ccccc3OCC(F)(F)F)C2=O)cc1` [Example 68, 4-{1-oxo-4-[2-(2,2,2-trifluoroethoxy)phenyl]-1,3-dihydro-2H-pyrrolo[3,4-c]pyridin-2-yl}benzonitrile], for which the inhibition at 10 µM was 87%.
On the same count and under the same terms, then `O=C1c2ccnc(-c3ccccc3OCC(F)(F)F)c2CN1c1ccc(OC(F)(F)F)cn1` [Example 56, 4-[2-(2,2,2-trifluoroethoxy)phenyl]-2-[5-(trifluoromethoxy)pyridin-2-yl]-2,3-dihydro-1H-pyrrolo[3,4-c]pyridin-1-one], with 100%.
With `COc1ccccc1-c1nccc2c1CN(c1ccc(C(F)(F)F)cn1)C2=O` [Example 32, 4-(2-methoxyphenyl)-2-[5-(trifluoromethyl)pyridin-2-yl]-2,3-dihydro-1H-pyrrolo[3,4-c]pyridin-1-one], the inhibition at 10 µM was 93%.
The same measure, in the same setting: then `Cc1cc2c(c(-c3ccccc3OCC(F)(F)F)n1)CN(c1ccc(OCC3(O)CC3)cc1)C2=O` [Example 375, 2-{4-[(1-hydroxycyclopropyl)methoxy]phenyl}-6-methyl-4-[2-(2,2,2-trifluoroethoxy)phenyl]-2,3-dihydro-1H-pyrrolo[3,4-c]pyridin-1-one], with 100%; and `CCC(=O)c1ccc(N2Cc3c(ccnc3-c3ccc(F)cc3OCC(F)(F)F)C2=O)cc1` [Example 189, 4-[4-fluoro-2-(2,2,2-trifluoroethoxy)phenyl]-2-(4-propanoylphenyl)-2,3-dihydro-1H-pyrrolo[3,4-c]pyridin-1-one], with 94%.
As for `Cn1cc2c(c(-c3ccc(F)cc3OCC(F)(F)F)c1=O)CN(c1ccc(OC(F)F)cc1)C2=O` [Example 196, 2-[4-(difluoromethoxy)phenyl]-7-[4-fluoro-2-(2,2,2-trifluoroethoxy)phenyl]-5-methyl-1H-pyrrolo[3,4-c]pyridine-3,6(2H,5H)-dione], the inhibition at 10 µM turned out to be 100%.
